Where two headings read alike, the source gives them in different places.
What was measured:
[1] = molecular target: GDP KRAS G12D (Homo sapiens, UniProt P01116, G12D); experiment: SPR binding affinity, GDP KRAS G12D; settings: GDP-bound KRAS G12D
[2] = molecular target: GppNHp KRAS G12D (Homo sapiens, UniProt P01116, G12D); experiment: SPR binding affinity, GppNHp KRAS G12D; settings: GppNHp-bound KRAS G12D
[3] = molecular target: T1, Avi-KRAS G12D (1-169) GppNHp/RAF1 RBD-3×FLAG (52-151) (Homo sapiens, UniProt P01116, G12D); experiment: HTRF Raf1-KRAS G12D-GppNHp disruption assay; format: biochemical; settings: 1 h incubation
T1 construct: Avi-KRAS G12D (1-169) GppNHp
T1 sequence (P01116 1-169 isoform P01116-2 G12D limits assumed): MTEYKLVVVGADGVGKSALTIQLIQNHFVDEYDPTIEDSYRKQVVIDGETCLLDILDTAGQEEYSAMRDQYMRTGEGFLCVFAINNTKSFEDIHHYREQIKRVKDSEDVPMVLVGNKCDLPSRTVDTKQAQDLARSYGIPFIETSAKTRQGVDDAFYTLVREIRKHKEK
Method in brief: (§1)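 HTRF read-out (320 nm excitation, 615 nm emission) after two 1 h room-temperature incubations, first with protein mix, then detection reagents. Ten-point dilution series starting at 100 μM; results given as % activity relative to DMSO at 100%.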

[4] = molecular target: T2, Avi-KRAS G12D/Q25A (1-169) GppNHp/3×FLAG-PI3KCA (157-299) (Homo sapiens, UniProt P01116, G12D/Q25A); experiment: HTRF PI3KCA-KRAS G12D/Q25A-GppNHp disruption assay; format: biochemical; settings: 1 h incubation
T2 construct: Avi-KRAS G12D/Q25A (1-169) GppNHp
T2 sequence (P01116 1-169 isoform P01116-2 G12D/Q25A limits assumed): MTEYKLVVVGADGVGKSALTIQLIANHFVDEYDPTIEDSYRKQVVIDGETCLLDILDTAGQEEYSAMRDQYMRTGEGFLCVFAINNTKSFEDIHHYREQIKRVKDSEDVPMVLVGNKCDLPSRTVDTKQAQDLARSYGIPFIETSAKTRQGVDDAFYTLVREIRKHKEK
Method in brief: as §1

[5] = tested on: pERK in GP2d cells (KRAS G12D); experiment: Cell-based pERK HTRF assay; settings: 60 min incubation
Method in brief: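 GP2d cells (DMEM, 10% FBS) treated 60 min with compounds in a 9-point half-log series from 1 μM top concentration, 0.25% DMSO. Lysates read for pERK by HTRF (d2/Eu cryptate antibodies) after 4–24 h at room temperature; emission at 615 nm.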

Sequence of GppNHp KRAS G12D (P01116 1-188 isoform P01116-2 G12D): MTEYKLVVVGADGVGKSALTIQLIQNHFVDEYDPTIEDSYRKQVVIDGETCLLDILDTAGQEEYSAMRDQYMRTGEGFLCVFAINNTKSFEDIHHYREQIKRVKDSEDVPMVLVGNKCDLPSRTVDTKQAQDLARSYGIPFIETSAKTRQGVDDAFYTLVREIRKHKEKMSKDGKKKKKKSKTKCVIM
Sequence of GDP KRAS G12D (P01116 1-188 isoform P01116-2 G12D): as above

IC50 ([5]; read-out: pERK-Gp2D-1hr) | Compound | Kd [1] | Kd [2] | IC50 [3] | IC50 [4] | IC50 ([5]; GP2d, 1 h)
 | Nc1nc2c(-c3c(C(F)(F)F)cc4c(N5CC6CCC(C5)N6)nc(OCC56CCCN5CCC6)nc4c3F)ccc(F)c2s1 [Compound 158, 4-(4-(3,8-diazabicyclo[3.2.1]octan-3-yl)-8-fluoro-2-((tetrahydro-1H-pyrrolizin-7a(5H)-yl)methoxy)-6-(trifluoromethyl)quinazolin-7-yl)-7-fluorobenzo[d]thiazol-2-amine] | ≤ 100 nM | ≤ 100 nM | 100 to 1000 nM | 100 to 1000 nM | ≤ 100 nM
 | Nc1nc2c(-c3c(C(F)(F)F)cc4c(N5CC6CCC(C5)N6)nc(OC[C@@]56CCCN5C[C@H](F)C6)nc4c3F)ccc(F)c2s1 [Compound 219, 4-(4-(3,8-diazabicyclo[3.2.1]octan-3-yl)-8-fluoro-2-(((2R,7aS)-2-fluorotetrahydro-1H-pyrrolizin-7a(5H)-yl)methoxy)-6-(trifluoromethyl)quinazolin-7-yl)-7-fluorobenzo[d]thiazol-2-amine] | ≤ 100 nM | ≤ 100 nM | ≤ 100 nM | 100 to 1000 nM | ≤ 100 nM
 | CN1C2CCC1CN(c1nc(OC[C@@]34CCCN3C[C@H](F)C4)nc3c(F)c(-c4ccc(F)c5sc(N)nc45)c(C(F)(F)F)cc13)C2 [Compound 221] | ≤ 100 nM | 1000 to 10000 nM | 1000 to 10000 nM | 1000 to 10000 nM | 100 to 1000 nM
≤ 100 nM | Nc1nc2c(-c3c(C(F)(F)F)cc4c(N5CC6CC5CN6)nc(OC[C@@]56CCCN5C[C@H](F)C6)nc4c3F)ccc(F)c2s1 (stereo partly shown) [Compound 241] | ≤ 100 nM | ≤ 100 nM | 100 to 1000 nM | 100 to 1000 nM | 
 | N#Cc1c(N)sc2c(F)ccc(-c3c(C(F)(F)F)cc4c(N5C[C@H]6CC[C@@H](C5)N6)nc(OC[C@@]56CCCN5C[C@H](F)C6)nc4c3F)c12 [Compound 255, 4-(4-((1R,5S)-3,8-diazabicyclo[3.2.1]octan-3-yl)-8-fluoro-2-(((2R,7aS)-2-fluorotetrahydro-1H-pyrrolizin-7a(5H)-yl)methoxy)-6-(trifluoromethyl)quinazolin-7-yl)-2-amino-7-fluorobenzo[b]thiophene-3-carbonitrile] | ≤ 100 nM | ≤ 100 nM | ≤ 100 nM | 100 to 1000 nM | ≤ 100 nM
 | N#Cc1c(N)sc2c(F)ccc(-c3c(Cl)cc4c(N5C[C@H]6CC[C@@H](C5)N6)nc(OC[C@@]56CCCN5C[C@H](F)C6)nc4c3F)c12 [Compound 260, 4-(4-((1R,5S)-3,8-diazabicyclo[3.2.1]octan-3-yl)-6-chloro-8-fluoro-2-(((2R,7aS)-2-fluorotetrahydro-1H-pyrrolizin-7a(5H)-yl)methoxy)quinazolin-7-yl)-2-amino-7-fluorobenzo[b]thiophene-3-carbonitrile] | ≤ 100 nM | ≤ 100 nM | ≤ 100 nM | 100 to 1000 nM | ≤ 100 nM
 | CN(c1nc(OC[C@@]23CCCN2C[C@H](F)C3)nc2c(F)c(-c3ccc(F)c4sc(N)nc34)c(C(F)(F)F)cc12)[C@H]1CNC[C@H]1F [Compound 290] | ≤ 100 nM | 100 to 1000 nM | 100 to 1000 nM | 100 to 1000 nM | ≤ 100 nM
 | N#Cc1c(N)sc2c(F)ccc(-c3c(C(F)F)cc4c(N5C[C@H]6CC[C@@H](C5)N6)nc(OC[C@@]56CCCN5C[C@H](F)C6)nc4c3F)c12 [Compound 301, 4-(4-((1R,5S)-3,8-diazabicyclo[3.2.1]octan-3-yl)-6-(difluoromethyl)-8-fluoro-2-(((2R,7aS)-2-fluorotetrahydro-1H-pyrrolizin-7a(5H)-yl)methoxy)quinazolin-7-yl)-2-amino-7-fluorobenzo[b]thiophene-3-carbonitrile] | ≤ 100 nM | ≤ 100 nM | 100 to 1000 nM | 100 to 1000 nM | ≤ 100 nM

— patent US20240246954A1, “COMPOSITIONS AND METHODS FOR INHIBITING KRAS” (TheRas, Inc., priority 2021, published 2024)
